# From PMC6854942, “Simultaneous Determination of Three Bioactive Constituents from Bletilla striata by UPLC-MS/MS and Application of the Technique to Pharmacokinetic Analyses” (Evidence-based Complementary and Alternative Medicine : eCAM, 2019)
# Where “and” joins values, the source holds several entries; their conditions need not be identical. Equal values may be shown once.
# What was measured:
# [1] = Pharmacokinetic study in rats after oral administration of B. striata extract (UPLC-MS/MS of plasma); type: in vivo, Sprague-Dawley rats; settings: for bioavailability: rats, AUC0−t oral (22.2 g/kg extract) vs i.v. (1.64 g/kg extract), dose-corrected, read-out: Bioavailability (absolute); for MRT last: read-out: MRT0–t; for MRT inf: read-out: MRT0–∞
# Experimental: (§1) An ACQUITY™ UPLC system (Waters Corp., Milford, MA, USA) with a conditioned autosampler and the ACQUITY™ UPLC BEH C18 analytical column (50 mm × 2.1 mm, internal diameter, 1.7 μm; Waters Corp., Milford, MA, USA) were used, to which a 6 mm precolumn filter unit was added. Analysis was carried out with an elution gradient of (A) acetonitrile and (B) water (both containing 0.1% formic acid) at a flow rate of 0.35 mL/min as follows: 0–0.5 min (10% A), 0.5–1.0 min (10–30% A), 1.0–2.0 min (30–35% A), 2.0–3.0 min (35–38% A), 3.0–4.0 min (38–90% A), and 4.0–5.0 min (90–10% A). The column and autosampler were maintained at 45°C and 15°C, respectively. The injection volume was 2 μL.
# (§2) Mass spectrometric detection was performed using a Waters ACQUITY™ TQD triple quadrupole tandem mass spectrometer (Waters Corp., Manchester, UK) with an ESI interface in the positive ionization mode. The MS conditions were as follows: capillary voltage, 3.0 kV; desolvation gas flow, 650 L/h of nitrogen; and cone gas flow, 50 L/h of nitrogen. The collision gas (Ar) flow for MS/MS was maintained at 0.16 mL/min for collision-induced dissociation (CID). The source and desolvation gas temperatures were 120°C and 350°C, respectively. The multiple reaction monitoring (MRM) mode was used for quantification. All data were acquired using Masslynx™ V 4.1 Software and processed using Quanlyna™ V4.1 (Waters Corp., Millford, MA, USA).
# (§3) Ten microliters of the IS solution (puerarin, 10 μg/mL in methanol) and 50 μL of 1% formic acid were added to 100 μL of rat plasma. Proteins were precipitated by addition of 400 μL of methanol, vortexing for 1 min, sonication for 5 min, followed by centrifugation at 13225 ×g for 10 min at 4°C, collecting the supernatant in a centrifuge tube, and drying at 37°C N2. Subsequently, 300 μL of the initial mobile phase was dissolved, sonicated for 5 min, and centrifuged at 5°C and 13225 ×g for 5 min, and the supernatant was used for analysis by UPLC-MS/MS.
# (§4) The twelve Sprague-Dawley rats were housed under a controlled temperature regimen (22 ± 1°C) and relative humidity of 50–70%. The animals were maintained on a 12 h light/12 h dark cycle and had free access to food and water. They were fasted for 12 h before each experiment but allowed to drink freely during this time. Before the experiment, the B. striata extracts' intravenous and oral dosing solutions were prepared in physiological saline at concentrations of 1.03 g/mL and 2.78 g/mL, respectively. The 12 rats were randomly divided into two groups with 6 rats in each group. Group 1 underwent oral administration (22.2 g/kg), and group 2 underwent intravenous administration (1.64 g/kg). Blood samples (0.3 mL) were collected from the external right jugular veins of the rats into heparinized tubes at the designated time points (0.033, 0.083, 0.167, 0.33, 0.5, 1, 1.5, 2, 10, 24, 36, and 48 h for group 1 and 0.033, 0.083, 0.167, 0.25, 0.33, 0.5, 0.75, 1, 1.6, and 2 h for group 2). The blood samples were immediately centrifuged at 3000 ×g for 5 min. The plasma was removed and frozen at −20°C until further analysis.
# (§5) Data are represented as mean± standard deviation. To determine the pharmacokinetic parameters, the concentration-time data were analyzed by DAS 2.0 software (Mathematical Pharmacology Professional Committee of China, Shanghai, China). Statistical analysis was performed using the statistical software package Statistical Product and Service Solutions (SPSS 11.5, USA). The absolute bioavailability was calculated using the following equation: F (%) = [AUC0 − t (oral) × dose (i.v.)]/[AUC0 − t (i.v.) × dose (oral)]) × 100.
# [2] = Stability of each compound in rat plasma (QC samples); type: in vitro ADME; settings: n = 5
# Experimental: The stability of each compound in rat plasma was evaluated using mixtures containing low, medium, or high concentrations of the QC sample (n = 5 for each concentration level). The stability of each compound was tested under three conditions: room temperature for 6 h, three freeze (−20°C)-thaw (room temperature) cycles, and storage at 4°C for 12 h.
# [3] = Pharmacokinetic study in rats after intravenous administration of B. striata extract (UPLC-MS/MS of plasma); type: in vivo, Sprague-Dawley rats; settings: intravenous administration of B. striata extract 1.64 g/kg, rat plasma, n = 6; for MRT last / MRT inf: Sprague-Dawley; for MRT last: read-out: MRT0–t; for MRT inf: read-out: MRT0–∞
# Experimental: as §1, §2, §3, §4, §5
# [4] = Sprague-Dawley, oral administration of B. striata extract 22.2 g/kg, rat plasma, n = 6
# [5] = oral administration of B. striata extract 22.2 g/kg, rat plasma, n = 6
# [6] = 3 freeze-thaw cycles (−20°C / room temperature), low QC (spiked 0.029 / 0.022 / 0.015 μg/mL)
# [7] = 3 freeze-thaw cycles, high QC (spiked 36.78 / 13.75 / 23.78 μg/mL)
# [8] = 3 freeze-thaw cycles, medium QC (spiked 4.09 / 2.75 / 2.64 μg/mL)
# [9] = 6 h, room temperature, high QC (spiked 36.78 / 13.75 / 23.78 μg/mL)
# [10] = 6 h, room temperature, low QC (spiked 0.029 / 0.022 / 0.015 μg/mL)
# [11] = 6 h, room temperature, medium QC (spiked 4.09 / 2.75 / 2.64 μg/mL)
# [12] = 12 h, 4°C, high QC (spiked 36.78 / 13.75 / 23.78 μg/mL)
# [13] = 12 h, 4°C, low QC (spiked 0.029 / 0.022 / 0.015 μg/mL)
# [14] = 12 h, 4°C, medium QC (spiked 4.09 / 2.75 / 2.64 μg/mL)
"bioavailability ([1]; Sprague-Dawley, rat, plasma)","Cmax [1, 4] [ng/mL]","MRT last [1, 4] [h]","MRT inf [1, 4] [h]","AUC0–t [1, 5] [h∗μg/mL]","AUC0–∞ [1, 5] [h∗μg/mL]","Accuracy [2, 6] [%]","Calculated concentration [2, 6] [µg/mL]","Calculated concentration [2, 7] [µg/mL]","Calculated concentration [2, 8] [µg/mL]","Calculated concentration [2, 9] [µg/mL]","Accuracy [2, 10] [%]","Calculated concentration [2, 10] [µg/mL]","Calculated concentration [2, 11] [µg/mL]","Accuracy [2, 12] [%]","Calculated concentration [2, 12] [µg/mL]","Accuracy [2, 13] [%]","Calculated concentration [2, 13] [µg/mL]","Accuracy [2, 14] [%]","Calculated concentration [2, 14] [µg/mL]",Compound,further results
9.8%,3060 ± 4820,12.4 ± 3.73,16 ± 5.34,20.56 ± 12.05,21.81 ± 12.04,100.3,0.022 ± 0.001,13.92 ± 0.57,2.74 ± 0.10,13.69 ± 0.39,100.2,0.022 ± 0.001,2.77 ± 0.08,96.1,13.22 ± 0.49,95.4,0.021 ± 0.001,97.5,2.68 ± 0.15,"CC(C)C[C@@](O)(CC(=O)O)C(=O)OCc1ccc(O[C@@H]2O[C@H](CO)[C@@H](O)[C@H](O)[C@H]2O)cc1 [Gymnoside I, gymnoside I]","T max [1, 5]: 1.44 ± 2.29 h; T max ([1]; oral administration of B. striata extract 22.2 g/kg, rat plasma, n = 6, listed as gymnoside I): 0.16 h; MRT last [3]: 0.68 ± 0.07 h; MRT inf [3]: 0.93 ± 0.18 h; AUC0–t [3]: 15.47 ± 1.63 h∗μg/mL; AUC0–∞ [3]: 17.52 ± 2.66 h∗μg/mL"
0.6%,3300 ± 3600,5.62 ± 2.45,9.31 ± 2.57,3.10 ± 1.16,4.26 ± 1.93,100.7,0.015 ± 0.001,21.8 ± 0.94,2.62 ± 0.09,21.3 ± 0.94,106.7,0.016 ± 0.001,2.62 ± 0.09,92.3,21.95 ± 1.1,100.1,0.015 ± 0.001,93.2,2.46 ± 0.28,"CC(C)C[C@@](O)(CC(=O)OCc1ccc(O[C@@H]2O[C@H](CO)[C@@H](O)[C@H](O)[C@H]2O)cc1)C(=O)OCc1ccc(O[C@@H]2O[C@H](CO)[C@@H](O)[C@H](O)[C@H]2O)cc1 [Militarine, militarine]","T max [1, 5]: 0.16 ± 0.11 h; T max ([1]; oral administration of B. striata extract 22.2 g/kg, rat plasma, n = 6, listed as militarine): 1.44 h; Accuracy [2, 7]: 91.7%; Accuracy [2, 8]: 99.2%; Accuracy [2, 9]: 89.6%; Accuracy [2, 11]: 99.2%; MRT last [3]: 0.36 ± 0.06 h; MRT inf [3]: 0.39 ± 0.07 h; AUC0–t [3]: 36.71 ± 5.66 h∗μg/mL; AUC0–∞ [3]: 37.22 ± 5.99 h∗μg/mL"
87.5% and 87.4%,23200 ± 5420,15.6 ± 3.63,19.7 ± 6.25,458.12 ± 150.74,498.36 ± 173.09,93.1,0.027 ± 0.001,34.17 ± 1.28,3.83 ± 0.08,34.95 ± 1.89,103.4,0.03 ± 0.001,3.77 ± 0.09,94.4,34.71 ± 1.95,96.6,0.028 ± 0.002,95.8,3.92 ± 0.11,CC(C)C[C@@](O)(CC(=O)O)C(=O)O [α-Isobutylmalic acid],"Tmax ([1]; Sprague-Dawley, rat, plasma, po, 22.2 g/kg, oral administration of B. striata extract 22.2 g/kg, rat plasma, n = 6): 6.44 ± 2.33 h; Accuracy [2, 7]: 92.9%; Accuracy [2, 8]: 93.6%; Accuracy [2, 9]: 95.0%; Accuracy [2, 11]: 92.2%; MRT last [3]: 0.45 ± 0.08 h; MRT inf [3]: 0.51 ± 0.1 h; AUC0–t [3]: 38.7 ± 4.72 h∗μg/mL; AUC0–∞ [3]: 39.62 ± 4.26 h∗μg/mL"
